Patent publication EP1203770A1 (priority 1992, dated 1994)
Like-named read-outs stand apart in the source and are kept apart here.

Biological target: T1, HIV-1 protease (Human immunodeficiency virus type 1 group M subtype B, UniProt P04585)
T1 construct: The protease (or proteinase), consisting of only 99 amino acids, is among the smallest enzymes known
Assay: In vitro HIV protease inhibitory assay (HIV Protease FITC Assay)
Format: biochemical
How it was run: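 Percent inhibition was read as fluorescence after avidin-bead capture and filtration separated FITC cleavage product from biotinylated substrate. Enzyme and substrate reacted 1 h, RT, dark, at pH 5.5 (0.1 M sodium acetate, 1.0 M NaCl, 0.05% NP-40).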

[1] = HIV-1 Dose 0.123 uM, read-out: HIV-1 Protease % Inhib
[2] = HIV-1 Dose 0.370 uM, read-out: HIV-1 Protease % Inhib
[3] = HIV-1 Dose 1.100 uM, read-out: HIV-1 Protease % Inhib
[4] = HIV-1 Dose 3.300 uM, read-out: HIV-1 Protease % Inhib
[5] = HIV-1 Dose 10.000 uM, read-out: HIV-1 Protease % Inhib
[6] = HIV-1 Dose 30.000 uM, read-out: HIV-1 Protease % Inhib
[7] = read-out: HIV-1 Protease % Inhib

Compound | inhibition at 0.123 µM [1] [%] | inhibition at 0.37 µM [2] [%] | inhibition at 1.1 µM [3] [%] | inhibition at 3.3 µM [4] [%] | inhibition at 10 µM [5] [%] | inhibition at 30 µM [6] [%] | Ki (read-out: HIV-1 FITC Ki) [nM] | other results
CCCC1(CCCc2ccccc2)CC(O)=C(C(c2ccccc2)c2ccccc2)C(=O)O1 (stereo not drawn) [Example 242, 2H-Pyran-2-one, 5,6-dihydro-3-diphenylmethyl-4-hydroxy-6-(3-phenylpropyl)-6-propyl-] | < 10 | 19.9 | 53.5 | 80.5 | 90.2 | 93.2 | 32.3 | 
O=c1oc(C(CC2CC2)CC2CCCOC2)cc(O)c1C(c1ccccc1)C1CC1 (stereo not drawn) [Example 243, 3-(α-Cyclopropylbenzyl)-6-[1-cyclopropylmethyl-2-(tetrahydropyran-3-yl)ethyl]-4-hydroxy-2H-pyran-2-one] | < 10 | 36.2 | 70.5 | 94.7 | 105 | 102 | 69 | 
CCS(=O)(=O)Nc1cccc(C(c2c(O)cc(C(CC3CC3)CC3CCCOC3)oc2=O)C2CC2)c1 (stereo not drawn) [Example 244] | 20.7 | 57.9 | 81.9 | 90.6 | 103 | 99.4 | 15.4 | 
Cc1ccc(S(=O)(=O)Nc2cccc(C(c3c(O)cc(C(CC4CC4)CC4CCCOC4)oc3=O)C3CC3)c2)cc1 (stereo not drawn) [Example 245] | 25.9 | 58 | 83.3 | 90.3 | 96.9 | 94.1 | 20.6 | 
CCC(Cc1ccccc1)c1cc(O)c(C(c2cccc(NS(=O)(=O)c3ccc(C)cc3)c2)C2CC2)c(=O)o1 (stereo not drawn) [Example 246] | 24.7 | 60.1 | 79.9 | 92.3 | 92.7 | 93.3 | 21.6 | 
CCC(Cc1ccccc1)c1cc(O)c(C(c2cccc(NS(=O)(=O)CC)c2)C2CC2)c(=O)o1 (stereo not drawn) [Example 247] | 14.1 | 47 | 73.1 | 86.7 | 96.1 | 97 | 30.4 | 
CCC(Cc1ccccc1)c1cc(O)c(C(c2cccc(NC(=O)Cc3cccnc3)c2)C2CC2)c(=O)o1 (stereo not drawn) [Example 248, 3-(α-Cyclopropyl-meta-(3-pyridylacetylamino)benzyl)-6-(α-ethylphenethyl)-4-hydroxy-2H-pyran-2-one] | < 10 | 31.6 | 63.7 | 86.5 | 101 | 99.2 | 61.7 | 
CCC(Cc1ccccc1)c1cc(O)c(C(c2cccc(NC(=O)Cc3ccncc3)c2)C2CC2)c(=O)o1 (stereo not drawn) [Example 249, 3-(α-Cyclopropyl-meta-(4-pyridylacetylamino)benzyl)-6-(α-ethylphenethyl)-4-hydroxy-2H-pyran-2-one] |  |  |  |  |  |  |  | Ki: 44.4 nM; inhibition at 0.123 µM [7]: < 10%; inhibition at 0.37 µM [7]: 40%; inhibition at 1.1 µM [7]: 70.3%; inhibition at 3.3 µM [7]: 88.5%; inhibition at 10 µM [7]: 103%; inhibition at 30 µM [7]: 107%
C=CC(c1ccccc1)c1c(O)cc(C)oc1=O (stereo not drawn) [PREPARATION 10, 4-Hydroxy-6-methyl-3-(1'-phenyl-2'-propenyl)-2-pyrone] |  |  |  |  | < 10 |  |  | HIV activity: found to have HIV activity; inhibition at 1 µM (HIV-1 Dose 1.000 uM, read-out: HIV-1 Protease % Inhib): < 10%; inhibition at 100 µM (HIV-1 Dose 100.000 uM, read-out: HIV-1 Protease % Inhib): 43.5%
Dimethyl 3-[(4-hydroxy-2-oxo-6-phenyl-2H-1-pyran-3-yl)(3-nitrophenyl)methyl] -1,3-propandioate [Example 29] |  |  |  |  |  |  |  | HIV-1 Protease % Inhib (HIV-1 Dose 1.000 uM): <10%; HIV-1 Protease % Inhib (HIV-1 Dose 10.000 uM): <10%; HIV-1 Protease % Inhib (HIV-1 Dose 100.000 uM): 32.16%
Dimethyl 3-[(4-hydroxy-2-oxo-6-phenyl-2H-1-pyran-3-yl)(4-nitrophenyl)methyl] - 1,3-propandioate [Example 28] |  |  |  |  |  |  |  | HIV-1 Protease % Inhib (HIV-1 Dose 1.000 uM): <10%; HIV-1 Protease % Inhib (HIV-1 Dose 10.000 uM): 15.07%; HIV-1 Protease % Inhib (HIV-1 Dose 100.000 uM): 76.68%
